Reference: patent US20250263424A1, “KRAS INHIBITORS” (Bristol-Myers Squibb Company, priority 2022, published 2025)

Biological target: Recombinant GMPPNP-loaded KRAS G12C (KRAS-G12C(ON), active form) (Homo sapiens, UniProt P01116, G12C)
Test: KRAS G12C RAF Disruption Assay (HTRF)
Type: biochemical
Conditions: GMPPNP-loaded KRAS G12C 5 nM, GST-RAF1 RBD 9 nM, values in nM, read-out: KRASG12C RAF Disruption Assay (IC50)
Outline: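 GMPPNP-loaded KRAS G12C (5 nM) preincubated with compound 20 min at room temperature in Tris pH 7.5 buffer with MgCl2, DTT and BSA. GST-RAF1 RBD (9 nM) then added for 20 min, and SA-Tb (0.25 nM) for 3 h. HTRF 520/495 ratio read; IC50 taken from the dose-response curve.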

Chain of Recombinant GMPPNP-loaded KRAS G12C (KRAS-G12C(ON), active form) (P01116 1-188 isoform P01116-2 G12C): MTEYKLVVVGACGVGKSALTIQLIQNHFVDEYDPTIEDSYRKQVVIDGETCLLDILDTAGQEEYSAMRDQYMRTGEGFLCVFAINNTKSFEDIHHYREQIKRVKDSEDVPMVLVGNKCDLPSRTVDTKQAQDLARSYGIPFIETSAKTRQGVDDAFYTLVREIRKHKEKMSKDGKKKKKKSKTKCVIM

SMILES | IC50
CN1CCC[C@H]1COc1nc(N2CCN(C(=O)/C(F)=C/c3ccccn3)[C@@H](CC#N)C2)c2ccc(-c3cc(Cl)ccc3OC(F)(F)F)c(F)c2n1 [Example 65, 2-((S)-4-(7-(5-chloro-2-(trifluoromethoxy)phenyl)-8-fluoro-2-(((S)-1-methylpyrrolidin-2-yl)methoxy)quinazolin-4-yl)-1-((Z)-2-fluoro-3-(pyridin-2-yl)acryloyl)piperazin-2-yl)acetonitrile] | 2100 nM
CN1CCC[C@H]1COc1nc(N2CCN(C(=O)/C(F)=C/c3nccs3)[C@@H](CC#N)C2)c2ccc(-c3cc(Cl)ccc3OC(F)(F)F)c(F)c2n1 [Example 66, 2-((S)-4-(7-(5-chloro-2-(trifluoromethoxy)phenyl)-8-fluoro-2-(((S)-1-methylpyrrolidin-2-yl)methoxy)quinazolin-4-yl)-1-((Z)-2-fluoro-3-(thiazol-2-yl)acryloyl)piperazin-2-yl)acetonitrile] | 3200 nM
CN1CCC[C@H]1COc1nc(N2CCN(C(=O)/C(F)=C/c3ncccn3)[C@@H](CC#N)C2)c2ccc(-c3cc(Cl)ccc3OC(F)(F)F)c(F)c2n1 [Example 67, 2-((S)-4-(7-(5-chloro-2-(trifluoromethoxy)phenyl)-8-fluoro-2-(((S)-1-methylpyrrolidin-2-yl)methoxy)quinazolin-4-yl)-1-((Z)-2-fluoro-3-(pyrimidin-2-yl)acryloyl)piperazin-2-yl)acetonitrile] | 4700 nM
CN1CCC[C@H]1COc1nc(N2CCN(C(=O)/C(F)=C/c3cnccn3)[C@@H](CC#N)C2)c2ccc(-c3cc(Cl)ccc3OC(F)(F)F)c(F)c2n1 [Example 68, 2-((S)-4-(7-(5-chloro-2-(trifluoromethoxy)phenyl)-8-fluoro-2-(((S)-1-methylpyrrolidin-2-yl)methoxy)quinazolin-4-yl)-1-((Z)-2-fluoro-3-(pyrazin-2-yl)acryloyl)piperazin-2-yl)acetonitrile] | 20400 nM
Cc1cc(N)nc(-c2c(Cl)cc3c(N4CC[C@@H]5CC[C@H](C4)N5C(=O)/C(F)=C/c4nccs4)nc(OC[C@]45CCC[C@H]4N(C)CCC5)nc3c2F)c1C(F)(F)F [Example 70, (Z)-1-((1R,6S)-3-(7-(6-amino-4-methyl-3-(trifluoromethyl)pyridin-2-yl)-6-chloro-8-fluoro-2-(((4aS,7aR)-1-methyloctahydro-4aH-cyclopenta[b]pyridin-4a-yl)methoxy)quinazolin-4-yl)-3,9-diazabicyclo[4.2.1]nonan-9-yl)-2-fluoro-3-(thiazol-2-yl)prop-2-en-1-one] | 7900 nM
Cc1cc(N)nc(-c2c(Cl)cc3c(N4CC[C@@H]5CC[C@H](C4)N5C(=O)/C(F)=C/c4nccs4)nc(OC[C@@]45CCCN4C[C@H](F)C5)nc3c2F)c1C(F)(F)F [Example 71, (Z)-1-((1R,6S)-3-(7-(6-amino-4-methyl-3-(trifluoromethyl)pyridin-2-yl)-6-chloro-8-fluoro-2-(((2R,7aS)-2-fluorotetrahydro-1H-pyrrolizin-7a(5H)-yl)methoxy)quinazolin-4-yl)-3,9-diazabicyclo[4.2.1]nonan-9-yl)-2-fluoro-3-(thiazol-2-yl)prop-2-en-1-one] | 9000 nM
C#Cc1c(F)ccc2cc(O)cc(-c3ccc4c(N5CCN(C(=O)/C(F)=C/c6nccs6)CC5)nc(OC[C@@]56CCCN5C[C@H](F)C6)nc4c3F)c12 [Example 72, (Z)-1-(4-(7-(8-ethynyl-7-fluoro-3-hydroxynaphthalen-1-yl)-8-fluoro-2-(((2R,7aS)-2-fluorotetrahydro-1H-pyrrolizin-7a(5H)-yl)methoxy)quinazolin-4-yl)piperazin-1-yl)-2-fluoro-3-(thiazol-2-yl)prop-2-en-1-one] | 2 nM
COCCCN1CCC(Oc2nc(N3CCN(C(=O)/C(F)=C/c4ccccn4)[C@@H](CC#N)C3)c3ccc(-c4cccc5cccc(Cl)c45)c(F)c3n2)CC1 [Example 73, (S,Z)-2-(4-(7-(8-chloronaphthalen-1-yl)-8-fluoro-2-((1-(3-methoxypropyl)piperidin-4-yl)oxy)quinazolin-4-yl)-1-(2-fluoro-3-(pyridin-2-yl)acryloyl)piperazin-2-yl)acetonitrile] | 710 nM
COCCCN1CCC(Oc2nc(N3CCN(C(=O)/C(F)=C/c4nccs4)[C@@H](CC#N)C3)c3ccc(-c4cccc5cccc(Cl)c45)c(F)c3n2)CC1 [Example 74, (S,Z)-2-(4-(7-(8-chloronaphthalen-1-yl)-8-fluoro-2-((1-(3-methoxypropyl)piperidin-4-yl)oxy)quinazolin-4-yl)-1-(2-fluoro-3-(thiazol-2-yl)acryloyl)piperazin-2-yl)acetonitrile] | 1500 nM
N#CC[C@H]1CN(c2nc(OC[C@@]34CCCN3C[C@H](F)C4)nc3c(F)c(-c4cccc5cccc(Cl)c45)ccc23)CCN1C(=O)/C(F)=C/c1nccs1 [Example 75, 2-((S)-4-(7-(8-chloronaphthalen-1-yl)-8-fluoro-2-(((2R,7aS)-2-fluorotetrahydro-1H-pyrrolizin-7a(5H)-yl)methoxy)quinazolin-4-yl)-1-((Z)-2-fluoro-3-(thiazol-2-yl)acryloyl)piperazin-2-yl)acetonitrile] | 60 nM
Cc1ccc2[nH]ncc2c1-c1ccc2c(N3CCN(C(=O)/C(F)=C/c4ccccn4)[C@@H](CC#N)C3)nc(OC[C@@]34CCCN3C[C@H](F)C4)nc2c1F [Example 76, 2-((2S)-4-(8-fluoro-2-(((2R,7aS)-2-fluorotetrahydro-1H-pyrrolizin-7a(5H)-yl)methoxy)-7-(5-methyl-1H-indazol-4-yl)quinazolin-4-yl)-1-((Z)-2-fluoro-3-(pyridin-2-yl)acryloyl)piperazin-2-yl)acetonitrile] | 50 nM
Cc1ccc2[nH]ncc2c1-c1ccc2c(N3CCN(C(=O)/C(F)=C/c4nccs4)[C@@H](CC#N)C3)nc(OC[C@@]34CCCN3C[C@H](F)C4)nc2c1F [Example 77, 2-((2S)-4-(8-fluoro-2-(((2R,7aS)-2-fluorotetrahydro-1H-pyrrolizin-7a(5H)-yl)methoxy)-7-(5-methyl-1H-indazol-4-yl)quinazolin-4-yl)-1-((Z)-2-fluoro-3-(thiazol-2-yl)acryloyl)piperazin-2-yl)acetonitrile] | 50 nM

Continued, values first:

IC50 | SMILES
240 nM | N#CC[C@H]1CN(c2nc(OC[C@@]34CCCN3C[C@H](F)C4)nc3c(F)c(-c4cccc5cccc(C#N)c45)ccc23)CCN1C(=O)/C(F)=C/c1ccccn1 [Example 78, 8-(4-((S)-3-(cyanomethyl)-4-((Z)-2-fluoro-3-(pyridin-2-yl)acryloyl)piperazin-1-yl)-8-fluoro-2-(((2R,7aS)-2-fluorotetrahydro-1H-pyrrolizin-7a(5H)-yl)methoxy)quinazolin-7-yl)-1-naphthonitrile]
1600 nM | CN1CCC[C@H]1COc1nc(N2CCN(C(=O)/C(F)=C/c3ccccn3)[C@@H](CC#N)C2)c2ccc(-c3cccc4cccc(C#N)c34)c(F)c2n1 [Example 79, 8-(4-((S)-3-(cyanomethyl)-4-((Z)-2-fluoro-3-(pyridin-2-yl)acryloyl)piperazin-1-yl)-8-fluoro-2-(((S)-1-methylpyrrolidin-2-yl)methoxy)quinazolin-7-yl)-1-naphthonitrile]
550 nM | CN1CCC[C@H]1COc1nc(N2C[C@H]3CC[C@@H](C2)N3C(=O)/C(F)=C/c2ccccn2)c2ccc(-c3ccc(F)c4sc(N)nc34)c(F)c2n1 [Example 80, (Z)-1-((1R,5S)-3-(7-(2-amino-7-fluorobenzo[d]thiazol-4-yl)-8-fluoro-2-(((S)-1-methylpyrrolidin-2-yl)methoxy)quinazolin-4-yl)-3,8-diazabicyclo[3.2.1]octan-8-yl)-2-fluoro-3-(pyridin-2-yl)prop-2-en-1-one]
20 nM | C#Cc1cccc2cccc(-c3ccc4c(N(C)[C@@H]5CCN(C(=O)/C(F)=C/c6ccccn6)C5)nc(OC[C@@]56CCCN5C[C@H](F)C6)nc4c3F)c12 [Example 81, (Z)-1-((R)-3-((7-(8-ethynylnaphthalen-1-yl)-8-fluoro-2-(((2R,7aS)-2-fluorotetrahydro-1H-pyrrolizin-7a(5H)-yl)methoxy)quinazolin-4-yl)(methyl)amino)pyrrolidin-1-yl)-2-fluoro-3-(pyridin-2-yl)prop-2-en-1-one]
40 nM | C#Cc1cccc2cccc(-c3ccc4c(N(C)[C@@H]5CCN(C(=O)/C(F)=C/c6nccs6)C5)nc(OC[C@@]56CCCN5C[C@H](F)C6)nc4c3F)c12 [Example 82, (Z)-1-((R)-3-((7-(8-ethynylnaphthalen-1-yl)-8-fluoro-2-(((2R,7aS)-2-fluorotetrahydro-1H-pyrrolizin-7a(5H)-yl)methoxy)quinazolin-4-yl)(methyl)amino)pyrrolidin-1-yl)-2-fluoro-3-(thiazol-2-yl)prop-2-en-1-one]
22 nM | Cc1cc2[nH]ncc2c(-c2ccc3c(N(C)[C@@H]4CCN(C(=O)/C(F)=C/c5ccccn5)C4)nc(OC[C@@]45CCCN4C[C@H](F)C5)nc3c2F)c1Cl [Example 83, (Z)-1-((3R)-3-((7-(5-chloro-6-methyl-1H-indazol-4-yl)-8-fluoro-2-(((2R,7aS)-2-fluorotetrahydro-1H-pyrrolizin-7a(5H)-yl)methoxy)quinazolin-4-yl)(methyl)amino)pyrrolidin-1-yl)-2-fluoro-3-(pyridin-2-yl)prop-2-en-1-one]
98 nM | Cc1cc2[nH]ncc2c(-c2ccc3c(N(C)[C@@H]4CCN(C(=O)/C(F)=C/c5nccs5)C4)nc(OC[C@@]45CCCN4C[C@H](F)C5)nc3c2F)c1Cl [Example 84, (Z)-1-((3R)-3-((7-(5-chloro-6-methyl-1H-indazol-4-yl)-8-fluoro-2-(((2R,7aS)-2-fluorotetrahydro-1H-pyrrolizin-7a(5H)-yl)methoxy)quinazolin-4-yl)(methyl)amino)pyrrolidin-1-yl)-2-fluoro-3-(thiazol-2-yl)prop-2-en-1-one]
